Patent US4499082A, “α-Aminoboronic acid peptides” (E. I. Du Pont de Nemours and Company, priority 1983, dated 1985)
Read-outs that look alike come from different tables or passages of the source.

Columns and labels:
chymotrypsin = chymotrypsin (Bos taurus, UniProt P00766); conditions: Matteson et al.; cited from earlier work
[1] = target: Porcine pancreatic elastase (Sus scrofa, UniProt P00772); test: Inhibition of pancreatic elastase; assay type: biochemical; conditions: inhibitor 5 × 10^4 nM
Description: Porcine pancreatic elastase (9.8 U/mg.) was obtained from commercial sources. […] Reactions were initiated by addition of 0.5 μg of elastase in 0.020 mL of 0.020M sodium acetate buffer, pH 6.0, and hydrolysis of substrate was monitored spectrophotometrically at 405 nm at 25° C. Assay results are set forth in Table 4, below, expressed as percentages of activity of control mixtures to which no inhibitor was added: […]

neutrophil elastase [2] = target: T1, neutrophil elastase (Homo sapiens, UniProt P08246); test: Inhibition of neutrophil elastase (Table 2); assay type: biochemical; set-up: Neutrophil elastase was prepared by the procedure described by Baugh. et al; from tissue; conditions: inhibitor 5,000 nM
T1 sequence (P08246 30-267): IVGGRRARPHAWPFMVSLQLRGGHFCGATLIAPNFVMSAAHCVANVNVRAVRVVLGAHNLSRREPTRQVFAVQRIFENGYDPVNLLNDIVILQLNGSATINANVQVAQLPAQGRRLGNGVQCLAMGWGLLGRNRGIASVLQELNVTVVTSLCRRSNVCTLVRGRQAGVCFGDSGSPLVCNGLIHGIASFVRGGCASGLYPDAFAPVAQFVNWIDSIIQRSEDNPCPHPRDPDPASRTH
Description: Neutrophil elastase was prepared by the procedure described by Baugh. et al., Biochemistry 15:836 […]. Enzyme assays were conducted substantially according to the procedure disclosed by Nakajima, et al., J. Biol. […] Inhibitors were evaluated by comparing enzymatic activity measured in the presence and absence of inhibitor.

Bovine α-chymotrypsin = target: T2, Bovine α-chymotrypsin (Bos taurus, UniProt P00766); test: Inhibition of α-chymotrypsin; assay type: biochemical; conditions: inhibitor 100 nM; N.T (no detectable time dependence)
T2 construct: purchased
Description: Bovine α-chymotrypsin, obtained from commercial sources, was used to prepare stock solutions. […] Reactions were initiated by the addition of 0.040 μg of enzyme and increases in absorbance were monitored spectrophotometrically at 405 nm at 25°.

neutrophil elastase [3] = target: T1, neutrophil elastase; test: Kinetic constants for interaction with human neutrophil elastase (Table 1); assay type: biochemical; set-up: Neutrophil elastase was prepared by the procedure described by Baugh. et al; from tissue
Description: A more extensive evaluation of the kinetic constants for interaction of human neutrophil elastase with MeOSuc-AlaAlaPro-Boroval-OH were determined by methods substantially similar to those disclosed by Schloss, et al., Biochemistry 19:2358 (1980), who describe the following equation describing reversible, tight binding inhibition: [drawing 13]
As determined herein, Ki (initial)=k2 /k1; Ki (final)=(k2 /k1)k4 /(k3 +k4); and […]; E=[Enzyme]; I=[inhibitor]; EI and EI*=[enzyme-inhibitor complexes].
Ki (initial) was determined from initial velocity studies, according to the method of Lineweaver and Burk. Substrate concentration was varied from 0.80-0.04 mM, and concentration of inhibitor (MeOSuc-AlaAlaPro-Boroval-OH) was 200 nM. Observed inhibition appeared to be competitive, since double reciprocal plots of initial velocity vs. substrate concentration intercepted the y-axis at the same point.
The data were fitted to the following equation: P=P0 +(vi -vf)/k+vf t+(vf -vi)e^-kt /k. P is the concentration of product at time t, vi is the initial velocity, vf is the final steady state velocity, k is the first order rate constant and P0 is the concentration of product at t=0. Values of Ki (initial) and Ki (final) were then determined from plots of velocity^-1 vs. concentration of inhibitor using the method described by Dixon, Biochem. J. 55:170 (1953).

neutrophil elastase [4] = target: T1, neutrophil elastase; test: Inhibition of neutrophil elastase, additional peptide inhibitors preincubated in phosphate buffer (Table 3); assay type: biochemical; set-up: Neutrophil elastase was prepared by the procedure described by Baugh. et al; from tissue; conditions: Conc. 1.0 × 10^-7 M
Description: Additional peptide inhibitors were evaluated by a procedure similar to that described above. Stock solutions of inhibitors (1.00 mM) were prepared in dimethylsulfoxide and compounds were diluted to 0.10 mM with […], pH 7.5, yielding the free boronic acid. After incubation for one hour at about 23°, inhibitors were added to assay solutions (2.00 mL) consisting of […] MeOSuc-Ala-AlaProVal-p-nitroanilide in 0.10M Hepes buffer, pH 7.5, containing 0.50M NaCl. Assays were initiated by addition of 0.50 μg neutrophil elastase. Control assays without inhibitor indicated an initial velocity of 0.0195 min^-1. The value "k" in Table 3, below, is an estimate of the first order rate constant for time-dependent inhibition, as described above for MeOSuc-AlaAlaPro-Boroval-OH (Table 1).

[5] = plasma incubated at 4°
Description: The stability of inhibitory capacity provided by MeOSuc-AlaAlaPro-Boroval-OH in plasma was determined by incubating samples of plasma containing inhibitor at 4° for 24 hours, followed by assays for inhibitory capacity conducted as above.

[6] = hamster, in vivo
Description: Plasma, 5 μL, containing various concentrations of inhibitor, or a dilution thereof, was incubated with 10 μL of a stock solution of 1.15×10^-5 M pancreatic elastase, in a final volume of 0.40 mL 0.10M Hepes buffer, pH 7.5, containing 0.5M NaCl at 25°. After 5 minutes incubation, 1.60 mL additional buffer and 20 μL of a 0.20M MeOSuc-AlaAlaPro-Val-pNA solution in dimethylsulfoxide was added and the increase in absorbance at 405 nm monitored. Levels of inhibitor were determined from a standard curve of % activity vs. inhibitor concentration.
FIG. 1 illustrates results of experiments in which hamsters, 50 days old, weighing 80-90 g, were administered MeOSu-AlaAlaPro-Boroval-pinacol in 1.0 mL saline at intraperitoneal dosage levels of 400, 200 and 100 mg/kg. At the indicated time intervals, blood samples (50-100 μL) were withdrawn by cardiac puncture from animals lightly anesthetized with ether, and elastase inhibitor levels determined. Normal plasma EIC is 14 μM.

α-chymotrypsin = target: T3, α-chymotrypsin (Bos taurus, UniProt P00766); conditions: competitive inhibitor; Lindquist et al.; cited from earlier work
T3 construct: purchased

[7] = tested on: experimentally-induced emphysema in hamsters; conditions: intraperitoneally; cited from earlier work
emphysema in mice = conditions: cited from earlier work
neutrophil elastase [8] = target: T1, neutrophil elastase; conditions: cited from earlier work
hamsters = conditions: intratracheal administration; cited from earlier work

Chain of Porcine pancreatic elastase (P00772 27-266): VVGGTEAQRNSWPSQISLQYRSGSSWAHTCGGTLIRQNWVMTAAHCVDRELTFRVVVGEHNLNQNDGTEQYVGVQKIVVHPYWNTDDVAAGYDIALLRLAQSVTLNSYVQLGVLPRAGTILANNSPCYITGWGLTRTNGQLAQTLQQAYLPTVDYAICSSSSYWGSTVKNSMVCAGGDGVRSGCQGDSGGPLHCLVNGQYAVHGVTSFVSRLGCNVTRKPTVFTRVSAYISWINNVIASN

Compound: CC(=O)N[C@@H](Cc1ccccc1)B(O)O [(R)-1-acetamido-2-phenylethaneboronic acid]
- Ki (chymotrypsin): 4000 nM

Compound: CC(C)(C)OC(=O)N[C@@H](Cc1ccccc1)C(=O)N1CCC[C@H]1C(=O)N[C@@H](Cc1ccccc1)B1OC(C)(C)C(C)(C)O1 [Boc--Phe--Pro--Borophe--pinacol, Boc-PhePro-Borophe-pinacol]
- Activity % of Control ([1]; 0.5 min): 69.1 % of Control
- Activity % of Control ([1]; 4.0 min): 21 % of Control
- % Activity (neutrophil elastase [2]; 0.5 min): 42%
- % Activity (neutrophil elastase [2]; 2 min): 23%
- % Activity (neutrophil elastase [2]; 4 min): 17%
- Activity % of Control (Bovine α-chymotrypsin): 69 % of Control

Compound: COC(=O)CCC(=O)N[C@@H](C)C(=O)N[C@@H](C)C(=O)N1CCC[C@H]1C(=O)NC(B(O)O)C(C)C (stereo partly drawn) [MeOSuc--Ala--Ala--Pro--Boroval--OH, MeOSuc-AlaAlaPro-Boroval-OH]
- Ki (neutrophil elastase [3]; initial velocity studies, Lineweaver and Burk, inhibitor 200 nM, read-out: Ki Initial): 150 nM
- Ki (neutrophil elastase [3]; progressive inhibition, Dixon plot, t = 0, inhibitor 30-300 nM, read-out: Ki Initial): 91 nM
- Ki (neutrophil elastase [3]; progressive inhibition, Dixon plot, t = infinity, equilibrium, read-out: Ki Final): 6.2 nM
- % Initial Activity (neutrophil elastase [4]): 61%
- k, first order rate constant for time-dependent inhibition (neutrophil elastase [4]): 0.27 min⁻¹
- % Activity, Plasma + Inhibitor ([5]; t = 0 hr.): 18.5%
- % Activity, Plasma + Inhibitor ([5]; t = 48 hr.): 17%

Compound: COC(=O)CCC(=O)N[C@@H](C)C(=O)N[C@@H](C)C(=O)N1CCC[C@H]1C(=O)NC(B1OC(C)(C)C(C)(C)O1)C(C)C (stereo partly drawn) [MeOSuc--Ala--Ala--Pro--Boroval--pinacol, MeOSuc-AlaAlaPro-Boroval-pinacol]
- elevation of plasma EIC [6]: at least 10 fold

Compound: O=C(NCB(O)O)c1ccccc1 [N-benzoylaminomethaneboronic acid]
- Ki (α-chymotrypsin): 1000 to 4000 nM

Compound: N-acetyl-L-alanyl-L-alanyl-L-prolyl-L-alanine chloromethyl ketone [Ac-Ala-Ala-Pro-AlaCH2 Cl]
- block of experimentally-induced emphysema [7]: effectively block experimentally-induced emphysema

Compound: N-methoxysuccinyl-L-alanyl-L-alanyl-L-prolyl-L-valine chloromethyl ketone [MeOSuc-Ala-Ala-Pro-ValCH2 Cl]
- effectiveness (emphysema in mice; administered more than fifteen minutes prior to intrapulmonary instillation of elastase): ineffective
- treatment of emphysema (emphysema in mice; given orally): effective agent in the treatment of emphysema
- concentration exhibiting inhibitory activity (neutrophil elastase [8]): 25 µM

Compound: N-succinyl-L-alanyl-L-alanyl-L-prolyl-L-valine chloromethyl ketone [Suc-Ala-Ala-Pro-ValCH2 Cl]
- effectiveness (hamsters): effective
